Measured values: ChEMBL document CHEMBL3994622, “Design and synthesis of new RAF kinase-inhibiting antiproliferative quinoline derivatives. Part 2: Diarylurea derivatives” (Eur J Med Chem, 2017)

Assays:
Assay type in all cases: functional
MOLT-4 [1] = experiment: Growth inhibition of human MOLT4 cells assessed as cell growth at 0.003 uM incubated for 48 hrs by sulforhodamine B assay relative to control; settings: MOLT-4, 48 h, read-out: Activity
SF-295 [2] = experiment: Growth inhibition of human SF295 cells assessed as cell growth at 0.003 uM incubated for 48 hrs by sulforhodamine B assay relative to control; settings: SF-295, 48 h, read-out: Activity
HOP-62 = experiment: Growth inhibition of human HOP62 cells assessed as cell growth at 0.03 uM incubated for 48 hrs by sulforhodamine B assay relative to control; settings: HOP-62, 48 h, read-out: Activity
SF-295 [3] = experiment: Growth inhibition of human SF295 cells assessed as cell growth at 0.03 uM incubated for 48 hrs by sulforhodamine B assay relative to control; settings: SF-295, 48 h, read-out: Activity
Malme-3M = experiment: Growth inhibition of human MALME-3M cells assessed as cell growth at 0.03 uM incubated for 48 hrs by sulforhodamine B assay relative to control; settings: read-out: Activity
MOLT-4 [4] = experiment: Growth inhibition of human MOLT4 cells assessed as cell growth at 0.3 uM incubated for 48 hrs by sulforhodamine B assay relative to control; settings: MOLT-4, 48 h, read-out: Activity
HT-29 [5] = experiment: Growth inhibition of human HT-29 cells assessed as cell growth at 0.3 uM incubated for 48 hrs by sulforhodamine B assay relative to control; settings: HT-29, 48 h, read-out: Activity
HCC 2998 [6] = experiment: Growth inhibition of human HCC2998 cells assessed as cell growth at 3 uM incubated for 48 hrs by sulforhodamine B assay relative to control; settings: HCC 2998, 48 h, read-out: Activity
OVCAR-4 [7] = experiment: Growth inhibition of human OVCAR4 cells assessed as cell growth at 3 uM incubated for 48 hrs by sulforhodamine B assay relative to control; settings: OVCAR-4, 48 h, read-out: Activity
NCI/ADR-RES [8] = experiment: Growth inhibition of human NCI/ADR-RES cells assessed as cell growth at 3 uM incubated for 48 hrs by sulforhodamine B assay relative to control; settings: read-out: Activity
CAKI-1 = experiment: Growth inhibition of human Caki1 cells assessed as cell growth at 3 uM incubated for 48 hrs by sulforhodamine B assay relative to control; settings: CAKI-1, 48 h, read-out: Activity
PC-3 [9] = experiment: Growth inhibition of human PC3 cells assessed as cell growth at 3 uM incubated for 48 hrs by sulforhodamine B assay relative to control; settings: PC-3, 48 h, read-out: Activity
NCI-H226 [10] = experiment: Growth inhibition of human NCI-H226 cells assessed as cell growth at 30 uM incubated for 48 hrs by sulforhodamine B assay relative to control; settings: NCI-H226, 48 h, read-out: Activity
NCI-H23 = experiment: Growth inhibition of human NCI-H23 cells assessed as cell growth at 30 uM incubated for 48 hrs by sulforhodamine B assay relative to control; settings: NCI-H23, 48 h, read-out: Activity
HT-29 [11] = experiment: Growth inhibition of human HT-29 cells assessed as cell growth at 0.01 uM incubated for 48 hrs by sulforhodamine B assay relative to control; settings: HT-29, 48 h, read-out: Activity
OVCAR-8 [12] = experiment: Growth inhibition of human OVCAR8 cells assessed as cell growth at 0.01 uM incubated for 48 hrs by sulforhodamine B assay relative to control; settings: OVCAR-8, 48 h, read-out: Activity
NCI/ADR-RES [13] = experiment: Growth inhibition of human NCI/ADR-RES cells assessed as cell growth at 0.01 uM incubated for 48 hrs by sulforhodamine B assay relative to control; settings: read-out: Activity
PC-3 [14] = experiment: Growth inhibition of human PC3 cells assessed as cell growth at 0.01 uM incubated for 48 hrs by sulforhodamine B assay relative to control; settings: PC-3, 48 h, read-out: Activity
NCI-H226 [15] = experiment: Growth inhibition of human NCI-H226 cells assessed as cell growth at 0.1 uM incubated for 48 hrs by sulforhodamine B assay relative to control; settings: NCI-H226, 48 h, read-out: Activity
SK-MEL-5 = experiment: Growth inhibition of human SK-MEL-5 cells assessed as cell growth at 0.1 uM incubated for 48 hrs by sulforhodamine B assay relative to control; settings: SK-MEL-5, 48 h, read-out: Activity
OVCAR-4 [16] = experiment: Growth inhibition of human OVCAR4 cells assessed as cell growth at 0.1 uM incubated for 48 hrs by sulforhodamine B assay relative to control; settings: OVCAR-4, 48 h, read-out: Activity
OVCAR-5 = experiment: Growth inhibition of human OVCAR5 cells assessed as cell growth at 0.1 uM incubated for 48 hrs by sulforhodamine B assay relative to control; settings: OVCAR-5, 48 h, read-out: Activity
K562 [17] = experiment: Growth inhibition of human K562 cells assessed as cell growth at 1 uM incubated for 48 hrs by sulforhodamine B assay relative to control; settings: K562, 48 h, read-out: Activity
A498 = experiment: Growth inhibition of human A498 cells assessed as cell growth at 1 uM incubated for 48 hrs by sulforhodamine B assay relative to control; settings: A498, 48 h, read-out: Activity
TK-10 = experiment: Growth inhibition of human TK10 cells assessed as cell growth at 1 uM incubated for 48 hrs by sulforhodamine B assay relative to control; settings: TK-10, 48 h, read-out: Activity
MCF7 [18] = experiment: Growth inhibition of human MCF7 cells assessed as cell growth at 1 uM incubated for 48 hrs by sulforhodamine B assay relative to control; settings: MCF7, 48 h, read-out: Activity
HL-60(TB) = experiment: Growth inhibition of human HL-60(TB) cells assessed as cell growth at 10 uM incubated for 48 hrs by sulforhodamine B assay relative to control; settings: HL-60, 48 h, read-out: Activity
K562 [19] = experiment: Growth inhibition of human K562 cells assessed as cell growth at 10 uM incubated for 48 hrs by sulforhodamine B assay relative to control; settings: K562, 48 h, read-out: Activity
MOLT-4 [20] = experiment: Growth inhibition of human MOLT4 cells assessed as cell growth at 10 uM incubated for 48 hrs by sulforhodamine B assay relative to control; settings: MOLT-4, 48 h, read-out: Activity
OVCAR-8 [21] = experiment: Growth inhibition of human OVCAR8 cells assessed as cell growth at 10 uM incubated for 48 hrs by sulforhodamine B assay relative to control; settings: OVCAR-8, 48 h, read-out: Activity
HCC 2998 [22] = experiment: Growth inhibition of human HCC2998 cells assessed as cell growth at 100 uM incubated for 48 hrs by sulforhodamine B assay relative to control; settings: HCC 2998, 48 h, read-out: Activity
MDA-MB-435 = experiment: Growth inhibition of human MDA-MB-435 cells assessed as cell growth at 100 uM incubated for 48 hrs by sulforhodamine B assay relative to control; settings: MDA-MB-435, 48 h, read-out: Activity
NCI/ADR-RES [23] = experiment: Growth inhibition of human NCI/ADR-RES cells assessed as cell growth at 100 uM incubated for 48 hrs by sulforhodamine B assay relative to control; settings: read-out: Activity
ACHN = experiment: Growth inhibition of human ACHN cells assessed as cell growth at 100 uM incubated for 48 hrs by sulforhodamine B assay relative to control; settings: read-out: Activity
MCF7 [24] = experiment: Growth inhibition of human MCF7 cells assessed as cell growth at 100 uM incubated for 48 hrs by sulforhodamine B assay relative to control; settings: MCF7, 48 h, read-out: Activity
BT-549 = experiment: Growth inhibition of human BT549 cells assessed as cell growth at 100 uM incubated for 48 hrs by sulforhodamine B assay relative to control; settings: BT-549, 48 h, read-out: Activity

| SMILES | growth at 0.003 µM (MOLT-4 [1]) [%] | growth at 0.003 µM (SF-295 [2]) [%] | growth at 0.03 µM (HOP-62) [%] | growth at 0.03 µM (SF-295 [3]) [%] | growth at 0.03 µM (Malme-3M) [%] | growth at 0.3 µM (MOLT-4 [4]) [%] | growth at 0.3 µM (HT-29 [5]) [%] | growth at 3 µM (HCC 2998 [6]) [%] | growth at 3 µM (OVCAR-4 [7]) [%] | growth at 3 µM (NCI/ADR-RES [8]) [%] | growth at 3 µM (CAKI-1) [%] | growth at 3 µM (PC-3 [9]) [%] | growth at 30 µM (NCI-H226 [10]) [%] | growth at 30 µM (NCI-H23) [%] | growth at 0.01 µM (HT-29 [11]) [%] | growth at 0.01 µM (OVCAR-8 [12]) [%] | growth at 0.01 µM (NCI/ADR-RES [13]) [%] | growth at 0.01 µM (PC-3 [14]) [%] | growth at 0.1 µM (NCI-H226 [15]) [%] | growth at 0.1 µM (SK-MEL-5) [%] | further results |
| --- | --- | --- | --- | --- | --- | --- | --- | --- | --- | --- | --- | --- | --- | --- | --- | --- | --- | --- | --- | --- | --- |
| COc1cc2cc(Oc3ccc(NC(=O)Nc4ccc(Cl)c(C(F)(F)F)c4)cc3)c(C)nc2cc1OC | 102 | 90 | 106 | 91 | 100 | 98 | 105 | 29 | 23 | 8 | -11 | -3 | -49 | -75 | – | – | – | – | – | – | – |
| COc1cc2cc(Oc3ccc(NC(=O)Nc4ccc(Cl)c(Cl)c4)cc3)c(C)nc2cc1OC | – | – | – | – | – | – | – | – | – | – | – | – | – | – | 108 | 101 | 101 | 96 | 107 | 100 | growth at 0.1 µM (OVCAR-4 [16]): 87%; growth at 0.1 µM (OVCAR-5): 104%; growth at 1 µM (K562 [17]): 88%; growth at 1 µM (A498): 74%; growth at 1 µM (TK-10): 114%; growth at 1 µM (MCF7 [18]): 86%; growth at 10 µM (HL-60(TB)): -22%; growth at 10 µM (K562 [19]): 15%; growth at 10 µM (MOLT-4 [20]): 7%; growth at 10 µM (OVCAR-8 [21]): 13%; growth at 100 µM (HCC 2998 [22]): -9%; growth at 100 µM (MDA-MB-435): -45%; growth at 100 µM (NCI/ADR-RES [23]): -46%; growth at 100 µM (ACHN): -61%; growth at 100 µM (MCF7 [24]): -50%; growth at 100 µM (BT-549): -72% |
| COc1cc2cc(Oc3ccc(NC(=O)Nc4cc(C(F)(F)F)cc(C(F)(F)F)c4)cc3)c(C)nc2cc1OC | – | – | – | – | – | – | – | – | – | – | – | – | – | – | 97 | 111 | 101 | 92 | 101 | 101 | growth at 0.1 µM (OVCAR-4 [16]): 83%; growth at 0.1 µM (OVCAR-5): 92%; growth at 1 µM (K562 [17]): 32%; growth at 1 µM (A498): 74%; growth at 1 µM (TK-10): 81%; growth at 1 µM (MCF7 [18]): 35%; growth at 10 µM (HL-60(TB)): -41%; growth at 10 µM (K562 [19]): -47%; growth at 10 µM (MOLT-4 [20]): -36%; growth at 10 µM (OVCAR-8 [21]): -46%; growth at 100 µM (HCC 2998 [22]): -92%; growth at 100 µM (MDA-MB-435): -63%; growth at 100 µM (NCI/ADR-RES [23]): -45%; growth at 100 µM (ACHN): -89%; growth at 100 µM (MCF7 [24]): -73%; growth at 100 µM (BT-549): -61% |
| Cc1nc2cc(O)c(O)cc2cc1Oc1ccc(NC(=O)Nc2ccc(Cl)c(Cl)c2)cc1 | 106 | 93 | 105 | 90 | 101 | 106 | 103 | 96 | 87 | 85 | 62 | 56 | 9 | -25 | – | – | – | – | – | – | – |
